Reference: patent US20020192776A1, “Heliothis glutamate receptor” (Aventis Cropscience SA, priority 2000, published 2002)

System: lepidopteran glutamate-gated chloride channel
Experiment: two-electrode voltage clamp recordings of Xenopus oocytes injected with HEGE2 mRNA
Type: cell-based, Heliothis virescens
Conditions: held at -80 mV
Description: Messenger RNA was produced from the cDNA template of HEGE2 by in vitro transcription with the Ambion mMESSAGE mMACHINE IN VITRO TRANSCRIPTION KIT (Ambion, Inc.). The mRNA was injected into oocytes by the following procedure.
Frogs were anesthetized in a 2 gram/liter solution of 3-amino benzoic acid ethyl ester for thirty minutes, after which oocytes were surgically removed from the abdominal cavity. Follicles were digested by collagenase treatment under sterile conditions by standard methods. Oocytes were injected with 50 nl of 1 μg/μl mRNA by glass electrodes.
After a 24 hr incubation, two-electrode voltage clamp recordings were made. Recordings were made using a Dagan, TEV200 voltage clamp interfaced with a MacLab4 data acquisition system running the MacLab Chart data acquisition/analysis software. Oocytes were positioned under a dissection scope under constant perfusion with frog saline (96 mM of NaCl, 2 mM of KCl, 1 mM of MgCl2, 1.8 mM of CaCl2 and 10 mM of HEPES, pH 7.5) using a Razel syringe perfusion pump. Model A99-FY at 93.9 cc/hr. Glass electrodes (A-M Systems. Inc. 1.5 mm×0.86 mm) were filled with 3 M KCl and resistance (a function of the diameter of the channel opening) was measured to be between 0.7 and 1.5 mega ohms. Both electrodes were inserted into the oocyte at opposite sides, the resting potential was recorded and the voltage clamp turned on. […]

| Molecule | activation of membrane (chloride) current (100 uM glutamate, Xenopus oocytes injected with 50 ng of HEGE2 mRNA, FIG. 1) | activation of current in oocytes (One micromolar Ivermectin phosphate, Xenopus oocytes expressing HEGE2) |
| --- | --- | --- |
| N[C@@H](CCC(=O)O)C(=O)O [glutamate] | activate a membrane current | – |
| Ivermectin phosphate | – | slowly and irreversibly activated current |
